Patent US20210401859A1, “METHODS OF TREATING CANCER IN BIOMARKER-IDENTIFIED PATIENTS WITH NON-COVALENT INHIBITORS OF CYCLIN-DEPENDENT KINASE 7 (CDK7)” (Syros Pharmaceuticals, Inc., priority 2018, published 2021)

What was measured:
[1] = tested on: BR5010, LU5178, OV15398 PDX models; test: TGI in PDX models BR5010 (TNBC), LU5178 (SCLC), OV15398 (HGSOC); assay type: in vivo, NOD/SCID mice; conditions: TNBC 10 mg/kg QD or 5 mg/kg BID, HGSOC 3 mg/kg BID, PO 21 days, 21 days follow-up
[2] = tested on: ST390 (modeling pancreatic ductal adenocarcinoma (PDAC)); test: TGI in PDAC PDX model ST390; assay type: in vivo, NOD/SCID mice; conditions: 6 mg/kg QD, PO, vehicle ~1,250 mm^3
Method: In the PDAC model, Compound 101 was orally administered to tumor-bearing NOD/SCID mice at 6 mg/kg QD. […] The % regression was calculated as: (Mean TV Compound 101 @ EOT)/(Mean TV Compound 101 @ Day 0)×100. The same calculations were used for end of study (day 42).

[3] = Plasma exposure on repeated daily dosing in mice; assay type: in vivo; conditions: repeated daily dosing at therapeutic doses in mice (1-6 mg/kg)
[4] = tested on: 12 PDX models (SCLC, TNBC, HGSOC); test: TGI and tolerability in 12 PDX models of SCLC, TNBC and HGSOC; assay type: in vivo
[5] = tested on: ovarian and breast tumor xenografts; test: Daily oral dosing in ovarian and breast tumor xenografts; assay type: in vivo

SMILES: CC1(C)CC[C@H](Nc2ncc(C(F)(F)F)c(-c3c[nH]c4c(P(C)(C)=O)c(C#N)ccc34)n2)CN1 [Compound 101, (S)-7-(dimethylphosphoryl)-3-(2-((6,6-dimethylpiperidin-3-yl)amino)-5-(trifluoromethyl)pyrimidin-4-yl)-1H-indole-6-carbonitrile]
- TGI (in words) [1]: deep and sustained TGI, including regressions
- tumor volume at day 21 [2]: about 250 mm^3
- plasma exposures [3]: dose proportional without accumulation
- TGI at the end of the 21-day dosing period, all models ([4]; 6 or 10 mg/kg QD or 3 or 5 mg/kg BID PO, all 12 models): at least 50%
- body weight loss / tolerability ([4]; all once-daily doses tested, tumor-bearing mice): no evident body weight loss
- tumor regrowth after treatment discontinuation ([4]; subset 7/12 models, 21 days after treatment discontinuation): no evidence of tumor regrowth
- TGI of deep responses in a subset of models ([4]; subset of models (58%, 7/12), TGI or regression): > 95%
- pharmacodynamic responses in xenograft tumor tissue ([5]; correlated with TGI): rapid (4 hours) and sustained (24 hours) dose-dependent pharmacodynamic responses
- TGI (in words) ([5]; daily oral dosing): dose-dependent TGI
- lowest dose at which tumor regression was observed ([5]; daily oral dosing): one-fifth of MTD
